In patent US20110230403A1, “GLYCOSIDE DERIVATIVES AND USES THEREOF” (NOVARTIS AG, priority 2008, published 2011) one finds IC50 data, which are given here for 17 compounds.

As usually defined, the IC50 is the midpoint of a concentration-inhibition curve.

For assay [1], the target named is T1, human sodium glucose cotransporter 2 (Homo sapiens, UniProt P31639).
T1 construct: expressed in transfected cells; host or cells: CHO-K1 (ATCC CCL-61) or HEK293 (ATCC CRL-1573), stably transfected with pZeoSV expression vector
T1 sequence (P31639 1-672): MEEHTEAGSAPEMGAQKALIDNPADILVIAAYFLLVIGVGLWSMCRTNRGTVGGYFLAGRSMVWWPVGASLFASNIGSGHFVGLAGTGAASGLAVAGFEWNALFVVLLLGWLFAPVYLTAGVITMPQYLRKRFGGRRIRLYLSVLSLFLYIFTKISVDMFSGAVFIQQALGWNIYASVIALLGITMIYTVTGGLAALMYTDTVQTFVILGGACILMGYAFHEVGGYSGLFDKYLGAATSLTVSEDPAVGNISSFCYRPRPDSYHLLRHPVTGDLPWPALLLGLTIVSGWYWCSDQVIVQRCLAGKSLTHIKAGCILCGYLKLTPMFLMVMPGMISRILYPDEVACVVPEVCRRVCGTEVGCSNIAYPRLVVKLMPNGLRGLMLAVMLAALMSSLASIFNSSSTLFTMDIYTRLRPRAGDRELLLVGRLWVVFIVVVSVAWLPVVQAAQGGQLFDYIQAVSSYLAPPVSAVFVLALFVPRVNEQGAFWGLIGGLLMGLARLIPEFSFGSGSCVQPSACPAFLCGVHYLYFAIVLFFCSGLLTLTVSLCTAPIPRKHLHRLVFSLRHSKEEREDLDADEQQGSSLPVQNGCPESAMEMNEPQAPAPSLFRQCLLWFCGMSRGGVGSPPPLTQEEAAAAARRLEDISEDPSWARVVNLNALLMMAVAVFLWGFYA
Put plainly: SGLT-2 assay: 14C-AMG uptake in CHO-hSGLT2 or HEK293-hSGLT2 cells. In kind it is cell-based. The note with it: n = 1-4, hSGLT2-transfected cells, read-out: SGLT2 IC50 nM (n = 1-4). Here is the method:
These cell lines transport 14 C-labelled alpha-methyl-glucopyranoside (14 C-AMG, Amersham) into the interior of the cell in sodium-dependent manner.
The SGLT-2 assay is carried out as follows: CHO-hSGLT2 cells are cultivated in Ham's F12 Medium (BioWhittaker) with 10% foetal calf serum and 250 μg/mL zeocin (Invitrogen), and HEK293-hSGLT2 cells are cultivated in DMEM medium with 10% foetal calf serum and 250 μg/mL zeocin (Invitrogen). The cells are detached from the culture flasks by washing twice with PBS and subsequently treating with trypsin/EDTA. After the addition of cell culture medium the cells are centrifuged, resuspended in culture medium and counted in a Casy cell counter. Then 40,000 cells per well are seeded into a white, 96-well plate coated with poly-D-Iysine and incubated overnight at 37° C., 5% CO2. The cells are washenwice with 250 μl of assay buffer (Hanks Balanced Salt Solution, 137 mM NaCl, 5.4 mM KCl, 2.8 mM CaCl2, 1.2 mM MgSO4 and 10 mM HEPES (pH 7.4), 50 μg/mL of gentamycin). 250 μl of assay buffer and 5 μl of test compound are then added to each well and the plate is incubated for a further 15 minutes in the incubator. 5 μl of 10% DMSO are used as the negative control. The reaction is started by adding 5 μl of 14 C-AMG (0.05 μCi) to each well. After 2 hours' incubation at 37° C., 5% CO2, the cells are washed again with 250 μl of PBS (200C) and then lysed by the addition of 25 μl of 0.1 N NaOH (5 min. at 37° C.). 200 μl of MicroScint20 (Packard) are added to each well and incubation is continued for a further 20 min at 37° C. After this incubation the radioactivity of the 14 C-AMG absorbed is measured in a Topcount (Packard) using a 14 C scintillation program.

The next assay deals with T2, human SGLT1 (Homo sapiens, UniProt P13866).
T2 construct: expressed in transfected cells; host or cells: CHO-K1 or HEK293 cells
T2 sequence (P13866 1-664): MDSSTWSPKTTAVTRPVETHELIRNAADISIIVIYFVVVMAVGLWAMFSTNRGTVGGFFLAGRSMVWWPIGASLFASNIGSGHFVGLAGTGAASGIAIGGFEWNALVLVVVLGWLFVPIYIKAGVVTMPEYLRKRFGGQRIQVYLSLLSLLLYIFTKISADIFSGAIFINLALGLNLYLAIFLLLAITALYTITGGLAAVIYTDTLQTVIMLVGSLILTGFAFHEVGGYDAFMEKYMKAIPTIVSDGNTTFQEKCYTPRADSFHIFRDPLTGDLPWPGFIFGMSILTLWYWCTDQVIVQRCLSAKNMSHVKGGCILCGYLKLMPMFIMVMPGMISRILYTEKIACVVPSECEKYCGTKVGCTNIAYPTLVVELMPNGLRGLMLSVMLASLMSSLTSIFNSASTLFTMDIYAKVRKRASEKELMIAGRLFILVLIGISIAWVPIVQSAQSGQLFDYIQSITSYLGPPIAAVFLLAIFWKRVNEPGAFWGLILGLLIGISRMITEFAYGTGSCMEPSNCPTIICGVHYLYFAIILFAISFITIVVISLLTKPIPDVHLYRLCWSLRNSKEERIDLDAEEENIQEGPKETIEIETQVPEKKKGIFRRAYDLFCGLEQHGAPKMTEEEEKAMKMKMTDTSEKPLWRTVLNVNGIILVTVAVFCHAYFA
Put plainly: hSGLT1 assay: analogous [14C]-AMG uptake in CHO-K1 or HEK293 cells expressing hSGLT1. In kind it is cell-based. The note with it: n = 1-4, hSGLT1-transfected cells. Here is the method:
To determine human SGLT1 inhibitory activity, an analogous test was set up in which the cDNA for hSGLTI (Genbank Ace. No. NM000343) instead of hSGLT2 cDNA is expressed in CHO-K1 or HEK293 cells. The uptake assay buffer in the case of the hSGLT1 assay contains 10 mM HEPES, 5 mM Tris, 140 mM NaCl, 2 mM KCl, 1 mM CaCl2, and 1 mM MgCl2, pH 7.4 containing 0.5 mM of α-methyl-D-glucopyranoside (AMG), 10 μM of [^14C]-α-methyl-D-glucopyranoside and different inhibitor concentrations.

Take `CCOc1ccc(Cc2cc([C@@H]3O[C@H](CSc4ncccn4)[C@@H](O)[C@H](O)[C@H]3O)ccc2Cl)cc1` [Example 8, (2S,3R,4R,5S,6S)-2-[4-Chloro-3-(4-ethoxy-benzyl)-phenyl]-6-(pyrimidin-2-ylsulfanylmethyl)-tetrahydro-pyran-3,4,5-triol]: in assay [1], the IC50 is 85 nM.

As for `CCOc1ccc(Cc2cc([C@@H]3O[C@H](CSc4nnnn4C)[C@@H](O)[C@H](O)[C@H]3O)ccc2Cl)cc1` [Example 10, (2S,3R,4R,5S,6S)-2-[4-Chloro-3-(4-ethoxy-benzyl)-phenyl]-6-(1-methyl-1H-tetrazol-5-ylsulfanylmethyl)-tetrahydro-pyran-3,4,5-triol], the results for the IC50 (in assay [1]; against human SGLT1) were 20 nM and less than 1000 nM, respectively.

On to `CCOc1ccc(Cc2cc([C@@H]3O[C@H](CSc4cccs4)[C@@H](O)[C@H](O)[C@H]3O)ccc2Cl)cc1` [Example 11, (2S,3R,4R,5S,6S)-2-[4-Chloro-3-(4-ethoxy-benzyl)-phenyl]-6-(thiophen-2-ylsulfanylmethyl)-tetrahydro-pyran-3,4,5-triol], for which the figures for the IC50 (in assay [1]; at human SGLT1) were 60 nM and less than 1000 nM, respectively.

Consider `CCOc1ccc(Cc2cc([C@@H]3O[C@H](CSc4nc5ccccc5[nH]4)[C@@H](O)[C@H](O)[C@H]3O)ccc2Cl)cc1` [Example 15, (2S,3S,4R,5R,6S)-2-(1H-Benzoimidazol-2-ylsulfanylmethyl)-6-[4-chloro-3-(4-ethoxy-benzyl)-phenyl]-tetrahydro-pyran-3,4,5-triol], for which, in assay [1], the IC50 was found to be 65 nM.

In the case of `CCOc1ccc(Cc2cc([C@@H]3O[C@H](CSc4ccccc4CO)[C@@H](O)[C@H](O)[C@H]3O)ccc2Cl)cc1` [Example 23, (2S,3R,4R,5S,6S)-2-[4-Chloro-3-(4-ethoxy-benzyl)-phenyl]-6-(2-hydroxymethyl-phenylsulfanylmethyl)-tetrahydro-pyran-3,4,5-triol], the half-maximal inhibitory concentration (IC50) in assay [1] worked out at 36 nM.

Take `CCOc1ccc(Cc2cc([C@@H]3O[C@H](CSc4ccccc4C(N)=O)[C@@H](O)[C@H](O)[C@H]3O)ccc2Cl)cc1` [Example 24, 2-{(2S,3S,4R,5R,6S)-6-[4-Chloro-3-(4-ethoxy-benzyl)-phenyl]-3,4,5-trihydroxy-tetrahydro-pyran-2-ylmethylsulfanyl}-benzamide]: the IC50 in assay [1] was found to be 57 nM.

`CCOc1ccc(Cc2cc([C@@H]3O[C@H](CSc4cc(NC(C)=O)ccc4F)[C@@H](O)[C@H](O)[C@H]3O)ccc2Cl)cc1` [Example 25, N-(3-{(2S,3S,4R,5R,6S)-6-[4-Chloro-3-(4-ethoxy-benzyl)-phenyl]-3,4,5-trihydroxy-tetrahydro-pyran-2-ylmethylsulfanyl}-4-fluoro-phenyl)-acetamide]: the 50% inhibitory concentration (IC50) in assay [1] was 7 nM; against human SGLT1, less than 50 nM.

As to `CCOc1ccc(Cc2cc([C@@H]3O[C@H](CSc4cc(C(N)=O)ccc4F)[C@@H](O)[C@H](O)[C@H]3O)ccc2Cl)cc1` [Example 26], the IC50 is 12 nM in assay [1] and less than 50 nM on human SGLT1.

As to `CCOc1ccc(Cc2cc([C@@H]3O[C@H](CSc4cc(C(=O)NC)ccc4F)[C@@H](O)[C@H](O)[C@H]3O)ccc2Cl)cc1` [Example 27, 3-{(2S,3S,4R,5R,6S)-6-[4-Chloro-3-(4-ethoxy-benzyl)-phenyl]-3,4,5-trihydroxy-tetrahydro-pyran-2-ylmethylsulfanyl}-4-fluoro-N-methyl-benzamide], the half-inhibitory concentration (IC50) in assay [1] is 6 nM; at human SGLT1, less than 50 nM.

`CCOc1ccc(Cc2cc([C@@H]3O[C@H](CSc4cc(C(=O)N5CCCC5)ccc4F)[C@@H](O)[C@H](O)[C@H]3O)ccc2Cl)cc1` [Example 36, (3-{(2S,3S,4R,6R,6S)-6-[4-Chloro-3-(4-ethoxy-benzyl)-phenyl]-3,4,5-trihydroxy-tetrahydro-pyran-2-ylmethylsulfanyl}-4-fluoro-phenyl)-pyrrolidin-1-yl-methanone]: the half-inhibitory concentration (IC50) in assay [1] amounted to 6 nM.

In the case of `CCOc1ccc(Cc2cc([C@@H]3O[C@H](CSc4ccc(NC(C)=O)cc4)[C@@H](O)[C@H](O)[C@H]3O)ccc2Cl)cc1` [Example 61, N-(4-{(2S,3S,4R,6R,6S)-6-[4-Chloro-3-(4-ethoxy-benzyl)-phenyl]-3,4,6-trihydroxy-tetrahydro-pyran-2-ylmethylsulfanyl}-phenyl)-acetamide], in assay [1], the IC50 came to 28 nM.

Take `CCOc1ccc(Cc2cc([C@@H]3O[C@H](CSc4cccc(NC(=O)CC)c4)[C@@H](O)[C@H](O)[C@H]3O)ccc2Cl)cc1` [Example 67, N-(3-{(2S,3S,4R,5R,6S)-6-[4-Chloro-3-(4-ethoxy-benzyl)-phenyl]-3,4,5-trihydroxy-tetrahydro-pyran-2-ylmethylsulfanyl}-phenyl)-propionamide]: the IC50 in assay [1] was 9 nM.

On to `CCOc1ccc(Cc2cc([C@@H]3O[C@H](CSc4cccc(NC(=O)OC)c4)[C@@H](O)[C@H](O)[C@H]3O)ccc2Cl)cc1` [Example 69], for which the half-maximal inhibitory concentration (IC50) in assay [1] is 28 nM.

`CCOc1ccc(Cc2cc([C@@H]3O[C@H](CSc4cccc(CO)c4)[C@@H](O)[C@H](O)[C@H]3O)ccc2Cl)cc1` [Example 77, (2S,3R,4R,5S,6S)-2-[4-Chloro-3-(4-ethoxy-benzyl)-phenyl]-6-(3-hydroxymethyl-phenylsulfanylmethyl)-tetrahydro-pyran-3,4,5-triol]: the concentration for half-maximal inhibition (IC50) in assay [1] amounted to 61 nM.

On to `CCOc1ccc(Cc2cc([C@@H]3O[C@H](COc4cccc(C(=O)NC)c4)[C@@H](O)[C@H](O)[C@H]3O)ccc2Cl)cc1` [Example 83, 3-{(2R,3S,4R,5R,6S)-6-[4-Chloro-3-(4-ethoxy-benzyl)-phenyl]-3,4,5-trihydroxy-tetrahydro-pyran-2-ylmethoxy}-N-methyl-benzamide], for which, in assay [1], the half-maximal inhibitory concentration (IC50) was 72 nM.

Regarding `CCOc1ccc(Cc2cc([C@@H]3O[C@H](COc4cccc(C(=O)N5CCCC5)c4)[C@@H](O)[C@H](O)[C@H]3O)ccc2Cl)cc1` [Example 84, (3-{(2R,3S,4R,5R,6S)-6-[4-Chloro-3-(4-ethoxy-benzyl)-phenyl]-3,4,5-trihydroxy-tetrahydro-pyran-2-ylmethoxy}-phenyl)-pyrrolidin-1-yl-methanone], the IC50 in assay [1] stood at 11 nM.

Turning to `CCOc1ccc(Cc2cc([C@@H]3O[C@H](COc4cccc(C(=O)N5CCC5)c4)[C@@H](O)[C@H](O)[C@H]3O)ccc2Cl)cc1` [Example 85], the 50% inhibitory concentration (IC50) in assay [1] stood at 9 nM.
